Test results as given in PMC9724248, “Anticancer peptide Q7 suppresses the growth and migration of human endometrial cancer by inhibiting DHCR24 expression and modulating the AKT-mediated pathway” (International Journal of Medical Sciences, 2022).
Read-outs that look alike come from different tables or passages of the source. Where no end group is shown, it is not given here.

Experiments:
Assay type in all cases: cell-based, human
[1] = test system: HEC-1-A cells; test: MTT cytotoxicity of anticancer peptides
Method: (§1) Cells were seeded into 96-well tissue culture plates at a concentration of 1×10^4 cells/200 μl/well overnight. Subsequently, the cells were treated with serial dilutions of ACP, scrambled ACP, or non-ACP. After 48 h of incubation, the cell viability of each line was determined by the MTT colorimetric assay (Sigma-Aldrich).

[2] = test system: HUVEC; details: MTT, 48 h, mean ± SD, ND: no detection, read-out: IC50 (50% decrease of cell viability)
Method: as §1

[3] = test system: HEC-1-A cells; test: Wound healing assay (Culture-Insert); details: peptides 50 µM, 24 h
Method: HEC-1-A cells (3×10^4 cells/70 μl/well) were seeded into a Culture-Insert 2 well (Ibidi, Munich, Germany) overnight. Afterward, inserts were removed, peptides (50 µM) were added, the status of the scratch wounds was monitored using an inverted microscope at 0 h (removal of Culture-Insert) and 24 h, and representative images were collected. The results were presented as the percentage of wound closure, calculated as follows: [wound area (initial) - wound area (final)]/wound area (initial)×100. The wound area was measured using software image J.

[4] = test system: AKT; test: Western blot of AKT phosphorylation; details: HEC-1-A, 100 µM, 6 h (Fig. S3)
Method: The cells were lysed on ice with 100 μl of lysis buffer and centrifuged at 13,000 g for 20 min at 4 °C. The lysate proteins were quantified using BCA Protein Assay Reagent. Each sample load comprised 30 μg total proteins per lane and was resolved by 12.5% SDS-PAGE. After being transferred onto the PVDF membranes, the membranes were blocked with 5% skimmed dried milk for 1 h and incubated overnight with primary antibodies, including anti-DHCR24, anti-AKT, anti-pAKT, anti-p-GSK3beta, anti-mTOR, and anti-p-mTOR (dilution: 1:1,000; Thermo); anti-S6K1, anti-p-p53, anti-cyclin D1, and anti-cleaved caspase 3 (dilution: 1:500; Thermo); anti-pS6K1 (dilution: 1:2,000; Thermo); anti-p53 and anti-GSK3beta (dilution: 1:200; Thermo); anti-BAX (dilution: 1:2,000; Thermo); anti-p-FoxO3A, anti-HIF-1α, and anti-actin (dilution: 1:1,500; GeneTex Inc., Irvine, CA, USA). The membrane was then washed and incubated with anti-rabbit IgG secondary antibodies followed by horseradish peroxidase. The protein expressions were visualized with an ECL kit (Pierce, Rockford, IL, USA) according to the manufacturer's instructions. Actin acted as the loading control.
Figure S3. Q7 repressed the phosphorylation of AKT-kinase.
After 6 h incubation of Q7 (100 µM), sQ7 and nACP, the AKT protein expression of
HEC-1-A cells was detected by using western blotting.
(1 picture or pasted object on this page, not shown here)

[5] = HEC-1-A, MTT, 48 h, mean ± SD, read-out: IC50 (50% decrease of cell viability)

Compound	IC50 [1, 5] [µM]	IC50 [2] [µM]	also measured
CSCC[C@H](N)C(=O)N[C@@H](CCC(=O)O)C(=O)N[C@@H](Cc1ccccc1)C(=O)N[C@H](C(=O)N[C@@H](C)C(=O)N[C@@H](CCCCN)C(=O)N[C@@H](CC(C)C)C(=O)N[C@@H](Cc1ccccc1)C(=O)N[C@@H](CCCCN)C(=O)N[C@@H](Cc1ccccc1)C(=O)N[C@@H](Cc1ccccc1)C(=O)N[C@@H](CCCCN)C(=O)N[C@@H](CC(=O)O)C(=O)N[C@@H](CC(C)C)C(=O)N[C@@H](CC(C)C)C(=O)NCC(=O)N[C@@H](CCCCN)C(=O)N[C@@H](Cc1ccccc1)C(=O)N[C@@H](CC(C)C)C(=O)NCC(=O)N[C@@H](CC(N)=O)C(=O)N[C@@H](CC(N)=O)C(=O)O)C(C)C [ACP NO. 3]	8.78 ± 0.77	9.72 ± 0.84	
EQQQQQQPQNRRFRE [Q7]			IC50 ([1]; 48 h): 130 ± 7.53 µM
FKGGGPYGQGVTRGQDLSGKDF [ACP NO. 1]	27.5 ± 2.5	29.1 ± 1.72	
GLLGVLGSVAKHVLPHVVPVIAEHL [ACP NO. 8]	23.7 ± 2.19	26.1 ± 2.38	
RQPQNQRQEQFQEQR [sQ7, reference compound]			IC50 ([1]; HEC-1-A, MTT, 0-400 μM, 48 h (Fig. 1A), mean ± SD, read-out: fifty percent of growth inhibition concentration (IC50)): 158 ± 13.9 µM
nACP: non-ACP (nACP), human HSP27_36-50 (PRLPEEWSQWLGGSS; UniProt P04792 36-50, looked up, fragment)			toxic effects on HEC-1-A cells ([1]; MTT, 48 h, up to 400 μM): not obviously toxic effects; wound closure rate [3]: 85%; level of phosphorylation of AKT [4]: no obvious effect
